Literature values, collected in article PMC9298350 (British Journal of Clinical Pharmacology, 2021).

## Cc1c(N(C)CS(=O)(=O)O)c(=O)n(-c2ccccc2)n1C [metamizole, Metamizole]
  Frequency of metamizole-associated agranulocytosis: 0.46–1.63 cases per 10^6 daily doses
Review of the available literature
  Mortality associated with ingestion: 0.25 per 10^6 prescriptions
